How the values were obtained:
rabbit IgG anti-EPS = assay: specific inhibition test in sandwich ELISA on walnut and herb samples; type: binding; settings: 50 μg/ml inhibitor
Protocol: A sandwich ELISA was used to ascertain whether (1-5)-coupled β-D-galactofuranosyl radicals were capable of binding antibodies. 0.1 ml portions containing 10 μg/ml rabbit IgG anti-EPS, which was diluted in PBS, were introduced into wells of polyvinyl plates and incubated overnight with shaking at 20° C. After washing in the manner described above, 0.1 ml samples containing β-(1-5)coupled galactofuranosyl radicals in PBS with 0.05% Tween 20 and 2% bovine serum albumin were added. After an incubation time of 60 minutes the plates were washed. 0.1 ml of an optimum dilution (=dilution was checked using the checker board titration) of rabbit IgG anti-EPS, conjugated with peroxidase, diluted in PBS with 0.05% Tween 20 was then added to each well. The incubation and the washing were carried out in the manner described above. The enzyme reaction was also determined in the manner described above.
In addition an immunological determination, described under (F), of Penicillium and Aspergillus species was carried out on 16 samples of walnuts and 9 samples of herbs, use being made of rabbit IgG and, respectively 50 μg/ml of a framer of (1-5)-coupled β-D-galactofuranoside per test sample. The EPS antigen possibly present in the abovementioned products was extracted by boiling with a phosphate-buffered physiological saline solution.

[1] = test system: human antibody binding to extracellular polysaccharides of Penicillium and Aspergillus species; assay: competition ELISA: inhibition of human antibody binding of 40 serum samples to EPS; settings: 40 human serum samples
Protocol: A total of 40 serum samples were collected arbitrarily from healthy Dutch males and females aged between 15 and 65.
(§1) The inhibition characteristics were determined using a "competition" enzyme-linked immunosorbent assay (ELISA). Microtiter polyvinyl wells (Cooke, Dynatech) were coated with polysaccharides which had been isolated from culture fluids of moulds. For this purpose 0.1 ml of 0.07 M phosphate buffer, pH 7.2, with 0.15 M NaCl (PBS) and 1 μg polysaccharide were added to each well of the plate. After incubating for one night with shaking at 20° C., the wells were washed under a continuous stream of tap water with 0.05% Tween 20 for 0.5 min. A prepared mixture of 50 μl antibodies (rabbit IgG and human sera respectively), diluted in PBS, which contained 0.05% Tween 20 and 2% bovine serum albumin, and 50 μl inhibitor, which was diluted in the same buffer, were then added. After an incubation time of 60 minutes the wells were washed in the manner described above. The quantity of antibodies which was absorbed on the polysaccharides was determined with sheep-anti-rabbit-globulins and with sheep-anti-human-globulins respectively which were conjugated to peroxidase. For this purpose 0.1 ml conjugate diluted in PBS, which contained 0.05% Tween 20, was added to each well (dilution was checked using the checker board titration). The incubation and the washing were carried out in the manner described for the prepared test sample (mixture of serum or IgG and inhibitor).
(§2) The enzyme reaction was determined spectrophotometrically at 449 nm after adding a solution of 5-amino-salicylic acid and H2 O2 (0.1 ml 0.07% 5-amino-salicylic acid, pH 6.0, and 0.005% H2 O2 were added to each well) and an incubation for 30 minutes at 20° C.
(§3) The human serum and rabbit IgG solutions were diluted to concentrations at which the extinction coefficients without inhibitor start to decrease (extinction value approximately 0.70). Methyl-β-D-galactofuranoside and the dimers to heptamers inclusive of (1-5)-coupled β-D-galactofuranosides were used as inhibitors. The inhibition effect of dimers of (1-2)-, (1-3)- and (1-6)-coupled β-D-galactofuranoside was also investigated (see Table B). The percentage inhibition was calculated as 100--100 (extinction with inhibitor - extinction without inhibitor).
The inhibition of the human antibody binding to EPS of moulds was tested with 40 serum samples using the tetramer of (1-5)-coupled β-D-galactofuranoside as inhibitor. The EPS in these tests originated from P. digitatum, P. cyclopium, P. dierckxii, P. funiculosum, A. niger, A. fumigatus and A. repens. Antibodies against P. funiculosum were not detectable in any serum sample, while antibodies against the other EPS derivatives were present in all 40 serum samples. The titers (reciprocal value of the dilution which gives the extinction equal to the mean value for 10 blank samples+2.81×standard deviation of these blank samples; confidence limit 99%), were in a range from 400 to 6,000. There was a significant correlation 99%) between the presence of antibodies in each serum and against the various Penicillium/Aspergillus EPS derivatives which were tested (Spearman Rank correlation test).

[2] = test system: rabbit anti-EPS antibodies; assay: competition ELISA: inhibition of binding of rabbit antibodies to EPS (FIG. 3); settings: binding of antibodies evoked in rabbits to EPS; for 50 per cent inhibition concentration: FIG. 3, EPS species not stated
Protocol: as §1, §2
as §3, with “The inhibition effect of dimers of (1-2)-, (1-3)- and (1-6)-coupled β-D-galactofuranoside was also investigated (see Table B).” left out

| Compound | Number of samples with inhibition >50% (rabbit IgG anti-EPS; Herbs, 4 samples, ELISA titer >50,000) | Number of samples with inhibition >50% (rabbit IgG anti-EPS; Herbs, 5 samples, ELISA titer 5000-50,000) | Number of samples with inhibition >50% (rabbit IgG anti-EPS; Nuts, 3 samples, ELISA titer 100-500) | Number of samples with inhibition >50% (rabbit IgG anti-EPS; Nuts, 4 samples, ELISA titer 5000-50,000) | Number of samples with inhibition >50% (rabbit IgG anti-EPS; Nuts, 9 samples, ELISA titer 500-5000) | Number of samples with an inhibition of 25% ([1]; inhibitor 4 μg/ml) | Number of samples with an inhibition of 50% ([1]; inhibitor 4 μg/ml) | Number of samples with an inhibition of 90% ([1]; inhibitor 4 μg/ml) | Number of samples with an inhibition of 25% ([1]; inhibitor 20 μg/ml) | Number of samples with an inhibition of 50% ([1]; inhibitor 20 μg/ml) | Number of samples with an inhibition of 90% ([1]; inhibitor 20 μg/ml) | Number of samples with an inhibition of 25% ([1]; inhibitor 100 μg/ml) | Number of samples with an inhibition of 50% ([1]; inhibitor 100 μg/ml) | Number of samples with an inhibition of 90% ([1]; inhibitor 100 μg/ml) | Number of samples with an inhibition of 25% ([1]; inhibitor 500 μg/ml) | Number of samples with an inhibition of 50% ([1]; inhibitor 500 μg/ml) | Number of samples with an inhibition of 90% ([1]; inhibitor 500 μg/ml) | concentration giving complete inhibition (100%) [2] [µg/mL] | 50 per cent inhibition concentration [2] |
| --- | --- | --- | --- | --- | --- | --- | --- | --- | --- | --- | --- | --- | --- | --- | --- | --- | --- | --- | --- |
| tetramer of (1-5)-coupled β-D-galactofuranoside | 4 | 5 | 3 | 4 | 7 | 15 | 0 | 0 | 34 | 12 | 0 | 36 | 32 | 0 | 37 | 36 | 15 | 100 | 30 µg/mL |
| CO[C@@H]1O[C@@H]([C@H](O)CO)[C@H](O)[C@H]1O [monomer, Methyl β-D-galactofuranoside] |  |  |  |  |  |  |  |  |  |  |  |  |  |  |  |  |  |  | approximately 10,000 μg/ml |

From patent US5149632A, “Method for the detection of molds in foodstuffs and human and animal body fluids” (De Staat Der Nedelranden Vertengwoordigd Door De Minister …, priority 1988, dated 1992)
